These results are taken from patent publication US9285322B2, “pH modulation methods and systems for detecting binding events” (The Texas A&M University System, priority 2010, dated 2016).

The test system of one assay is different kinases. Particulars: cited from earlier work.
Assay [1] has as its target T1, calmodulin (Homo sapiens, UniProt P0DP23). Particulars: 1 M CaCl2, 66 μM dye-conjugated calmodulin, 10 mM Tris, 100 mM NaCl, pH 7.4.
Assay [2] addresses T1, calmodulin. The conditions noted are these: read-out: equilibrium dissociation constant; cited from earlier work.
Assay [3] deals with T2, avidin (Gallus gallus, UniProt P02701). The experiment in a line: homogeneous biotin detection with ortho-TEXAS RED-conjugated avidin in microfluidic channels. Particulars: 200 μM biotin, 10 μM ortho-TEXAS RED-conjugated avidin, PBS, pH 8.2. Format: binding.
T2 sequence (P02701 25-152): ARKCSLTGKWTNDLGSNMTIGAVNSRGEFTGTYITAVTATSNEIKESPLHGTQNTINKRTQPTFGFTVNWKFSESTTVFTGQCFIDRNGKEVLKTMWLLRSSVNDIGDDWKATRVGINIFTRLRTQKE
The target in assay [4] is T2, avidin. Put plainly: protein-protein interaction assay: labeled avidin with biotinylated BSA in two parallel microfluidic channels. Format: binding.
Assay [5] concerns the target biotinylated bovine serum albumin (bovine) (UniProt P02769). The experiment in a line: homogeneous pH modulation fluorescence assay in two parallel microfluidic channels; 3 uM labeled avidin, 500 nM biotinylated BSA, 150 mM NaCl, 10 mM PBS, pH 7.0.

Sequence of biotinylated bovine serum albumin (bovine) (P02769 25-607 limits assumed): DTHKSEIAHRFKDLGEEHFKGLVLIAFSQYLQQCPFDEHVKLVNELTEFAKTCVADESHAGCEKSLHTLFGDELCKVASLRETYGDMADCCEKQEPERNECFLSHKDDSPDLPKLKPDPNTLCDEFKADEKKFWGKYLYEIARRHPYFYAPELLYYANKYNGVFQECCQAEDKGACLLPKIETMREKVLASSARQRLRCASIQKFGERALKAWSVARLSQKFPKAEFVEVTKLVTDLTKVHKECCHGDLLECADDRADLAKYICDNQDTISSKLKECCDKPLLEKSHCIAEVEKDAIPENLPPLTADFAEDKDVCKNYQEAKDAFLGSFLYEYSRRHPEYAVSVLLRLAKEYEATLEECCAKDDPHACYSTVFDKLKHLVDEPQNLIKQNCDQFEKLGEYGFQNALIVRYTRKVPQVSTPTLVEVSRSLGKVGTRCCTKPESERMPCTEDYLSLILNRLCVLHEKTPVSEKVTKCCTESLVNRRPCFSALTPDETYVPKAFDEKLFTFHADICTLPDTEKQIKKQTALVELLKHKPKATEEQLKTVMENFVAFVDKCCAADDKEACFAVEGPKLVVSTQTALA

With `Nc1ncnc2c1ncn2[C@@H]1O[C@H](COP(=O)(O)OP(=O)(O)OP(=O)(O)O)[C@@H](O)[C@H]1O` [ATP, adenosine triphosphate], the “affinities of different kinases for ATP” value in the assay with different kinases was “tens of nanomolar to hundreds of micromolar”. Turning to `[Ca+2].[Cl-].[Cl-]` [Ca^2+, calcium chloride], the “attenuation in fluorescence intensity (factor) when Ca2+ is present” value at calmodulin [1] is “two”. Also, at calmodulin [2], the Kd was 14 µM. Take `O=C(O)CCCC[C@@H]1SC[C@@H]2NC(=O)N[C@@H]21` [biotin]: the “fluorescence intensity increase (factor) when biotin was present” value at avidin [3] is on record as “six”. As for “biotinylated BSA: biotinylated bovine serum albumin”, the “signal in channel with biotinylated BSA relative to channel without (times brighter)” value with avidin [4] (500 nM biotinylated BSA, 3 μM ortho-TEXAS RED succinimidyl ester labeled avidin, 150 mM NaCl, 10 mM PBS, pH 7.0) is listed as “approximately eight”. Regarding “ortho-TEXAS RED succinimidyl ester labeled avidin (from UniProt P02701 25-152)”, the fluorescence intensity with biotinylated BSA relative to the channel without it in assay [5] is 8 fold. As to “para-sulforhodamine 101 [para-TEXAS RED®]”, the “fluorescence difference between channels with and without biotinylated BSA, control dye” value on avidin [4] (control with para-TEXAS RED under identical conditions (500 nM biotinylated BSA, pH 7.0)) is recorded as “no difference between the two channels”.
